Measured values as given in the SangsterLogP compilation.

SMILES | logP
CCN1CCCCC1 | 1.88
CCCCCCCCCl | 4.73
OC1CCCCCC1 | 1.83
CCC(C)(C)CC | 5.19
CCC(C)(C)c1ccc(O)cc1 | 3.83
CCCCCCCCCCBr | 6
ClCC(Cl)(Cl)Cl | 2.66
CC(C)CCl | 2.39
CC(C)C(C)(C)O | 1.48
CC(C)Br | 2.1
CCCCI | 3.08
C=CCC=CC | 3.16
CCCI | 2.54
C#CCC | 1.46
CC(C)CBr | 2.53
ClCCCCCl | 2.24
CC1CCCO1 (centres undefined) | 1.25
CCCCF | 2
OC1CCCCCCC1 | 2.39
CCCCCCI | 4.16

Results, then the compound that gave them:

logP | SMILES
2.3 | CCCCC(=O)OCC
0.27 | CCOC=O
3.66 | CCCCCCCl
3.36 | CCCCOC(=O)CCCC
1.53 | CCCC(C)(C)O
2.88 | CCCCC(=O)CCCC
3.32 | C#CCCCCC
1.71 | CCCC(=O)OCC
2.15 | CCCOC(=O)CCC
3.87 | CCCCCCCCC(=O)OC
1.57 | CCC(=O)OC(C)C
1.71 | CCCOC(=O)CC
1.02 | CC(=O)OC(C)C
2.8 | C=CCCC
7.4 | CCCCCCCCCCc1ccccc1
3.62 | CCCCCI
8 | CCCCCCCCCCCCCC
2.42 | CCCCCC(=O)OC
3.11 | CCCCCCl
4.51 | C#CCCCCCCC
3.92 | C#CCCCCCC
5.65 | CCCCCCCCC
1.55 | CCOC(=O)C(C)C
2.04 | CCCC(=O)CCC
